# Laboratory results reported in patent US11878966B2, “Substituted 4-benzyl and 4-benzoyl piperidine derivates” (89BIO LTD, priority 2015, dated 2024).
# Counter-ions that a name gives are not always drawn.
# Columns and labels:
# [1] = molecular target: T1, recombinant human baculovirus-expressed GST-tagged FASN (Homo sapiens, UniProt P49327); test: FASN enzyme activity assay: fluorescence-based detection of CoA with CPM; type: biochemical; conditions: 5 nM FASN, 150 μM NADPH, 10 μM acetyl-CoA, 25 μM malonyl-CoA, 90 minutes incubation
# T1 construct: GST; host or cells: baculovirus expression system (insect cells implied)
# In short: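 IC50 values were fitted (variable-slope sigmoid) to percent inhibition from CPM fluorescence (390/530 nm) reporting free CoA after a 30 min labelling step. The reaction ran 90 min after malonyl-CoA (25 μM) addition, with 10 μM acetyl-CoA, 150 μM NADPH, 5 nM recombinant GST-FASN, 50 mM HEPES pH 7.5 and 0.5% DMSO.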
# T1 sequence (P49327 whole entry): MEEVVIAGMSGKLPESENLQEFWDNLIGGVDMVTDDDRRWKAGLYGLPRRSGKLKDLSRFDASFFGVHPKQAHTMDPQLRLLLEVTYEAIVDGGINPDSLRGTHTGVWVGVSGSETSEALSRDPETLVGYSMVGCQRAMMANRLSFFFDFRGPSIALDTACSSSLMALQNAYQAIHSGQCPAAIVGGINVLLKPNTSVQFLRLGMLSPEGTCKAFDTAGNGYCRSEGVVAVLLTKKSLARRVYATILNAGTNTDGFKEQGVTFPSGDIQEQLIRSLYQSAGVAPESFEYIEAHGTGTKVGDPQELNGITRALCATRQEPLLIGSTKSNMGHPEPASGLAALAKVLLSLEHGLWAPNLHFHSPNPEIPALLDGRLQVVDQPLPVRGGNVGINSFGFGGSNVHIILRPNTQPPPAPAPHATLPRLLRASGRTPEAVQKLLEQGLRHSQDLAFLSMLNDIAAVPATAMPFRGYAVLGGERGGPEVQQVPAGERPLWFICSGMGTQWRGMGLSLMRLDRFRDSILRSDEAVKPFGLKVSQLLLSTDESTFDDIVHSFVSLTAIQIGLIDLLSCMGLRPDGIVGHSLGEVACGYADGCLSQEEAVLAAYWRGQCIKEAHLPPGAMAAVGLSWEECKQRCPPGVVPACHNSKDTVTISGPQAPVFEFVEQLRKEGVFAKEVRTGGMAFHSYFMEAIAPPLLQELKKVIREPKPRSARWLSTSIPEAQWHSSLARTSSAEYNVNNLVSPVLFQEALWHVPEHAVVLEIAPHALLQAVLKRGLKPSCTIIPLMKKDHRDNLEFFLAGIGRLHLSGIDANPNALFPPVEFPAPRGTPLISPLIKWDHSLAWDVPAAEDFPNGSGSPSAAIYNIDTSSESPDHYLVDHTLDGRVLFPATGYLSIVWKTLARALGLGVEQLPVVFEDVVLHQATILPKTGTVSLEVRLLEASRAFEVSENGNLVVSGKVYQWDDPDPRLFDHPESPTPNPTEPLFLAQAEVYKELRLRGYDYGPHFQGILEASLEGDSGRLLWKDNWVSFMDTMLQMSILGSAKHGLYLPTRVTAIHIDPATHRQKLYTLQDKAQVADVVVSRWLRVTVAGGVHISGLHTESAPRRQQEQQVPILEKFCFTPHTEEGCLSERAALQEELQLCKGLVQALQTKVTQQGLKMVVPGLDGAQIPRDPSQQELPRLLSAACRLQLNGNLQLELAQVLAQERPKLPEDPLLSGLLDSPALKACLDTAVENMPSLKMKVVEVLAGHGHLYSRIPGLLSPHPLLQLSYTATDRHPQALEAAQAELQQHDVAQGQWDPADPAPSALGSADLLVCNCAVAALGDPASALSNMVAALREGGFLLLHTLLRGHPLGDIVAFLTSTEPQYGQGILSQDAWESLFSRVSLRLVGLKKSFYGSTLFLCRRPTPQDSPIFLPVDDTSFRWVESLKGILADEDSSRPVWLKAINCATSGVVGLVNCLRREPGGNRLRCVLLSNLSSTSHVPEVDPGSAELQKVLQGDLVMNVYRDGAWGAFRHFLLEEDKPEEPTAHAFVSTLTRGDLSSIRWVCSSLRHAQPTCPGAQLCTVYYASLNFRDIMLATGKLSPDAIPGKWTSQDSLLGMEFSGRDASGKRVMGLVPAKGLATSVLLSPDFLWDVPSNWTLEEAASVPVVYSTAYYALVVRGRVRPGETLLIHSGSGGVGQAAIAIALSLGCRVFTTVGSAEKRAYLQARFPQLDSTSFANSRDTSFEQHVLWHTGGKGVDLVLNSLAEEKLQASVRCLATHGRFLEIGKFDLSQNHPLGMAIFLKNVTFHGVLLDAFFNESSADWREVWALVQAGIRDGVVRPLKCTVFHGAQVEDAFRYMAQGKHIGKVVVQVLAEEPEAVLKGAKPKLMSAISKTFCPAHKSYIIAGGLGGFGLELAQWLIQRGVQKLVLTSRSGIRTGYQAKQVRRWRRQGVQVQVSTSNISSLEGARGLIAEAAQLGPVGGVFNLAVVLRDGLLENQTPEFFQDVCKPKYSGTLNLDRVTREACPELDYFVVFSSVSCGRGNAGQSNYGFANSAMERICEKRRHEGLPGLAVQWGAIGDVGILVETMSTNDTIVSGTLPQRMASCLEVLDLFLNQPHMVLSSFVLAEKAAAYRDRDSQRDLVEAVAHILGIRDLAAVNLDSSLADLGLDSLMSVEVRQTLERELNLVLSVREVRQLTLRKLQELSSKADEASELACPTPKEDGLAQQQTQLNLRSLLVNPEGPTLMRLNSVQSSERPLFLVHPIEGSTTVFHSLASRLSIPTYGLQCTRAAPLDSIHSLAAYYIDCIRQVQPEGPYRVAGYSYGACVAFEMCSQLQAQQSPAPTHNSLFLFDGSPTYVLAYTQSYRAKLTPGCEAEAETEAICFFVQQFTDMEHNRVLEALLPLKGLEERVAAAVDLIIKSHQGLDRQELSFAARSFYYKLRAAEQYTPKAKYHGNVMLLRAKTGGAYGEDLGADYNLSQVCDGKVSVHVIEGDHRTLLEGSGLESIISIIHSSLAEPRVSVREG
SMILES,melting point [°C],IC50 [1] [nM]
"CC(C)C(=O)N1CCC(O)(Cc2ccc(-c3ccc4cnccc4c3)cc2)CC1 [Example 147, 1-[4-Hydroxy-4-(4-isoquinolin-6-yl-benzyl)-piperidin-1-yl]-2-methyl-propan-1-one]",175,1000 to 10000
"CCC(=O)N1CCC(O)(Cc2ccc(-c3cnc4ccccc4c3)cc2)CC1 [Example 148, 1-(4-hydroxy-4-(4-(quinolin-3-yl)benzyl)piperidin-1-yl)propan-1-one]",89,1000 to 10000
"CCC(=O)N1CCC(C(C)c2ccc(-c3cnc4ccccc4c3)cc2)CC1 (single isomer, unassigned) (as salt: HCl) [Example 67, 1-{4-[1-(4-Quinolin-3-yl-phenyl)-ethyl]-piperidin-1-yl}-propan-1-one]",215 to 219,
"CC(C)C(=O)N1CCC(O)(Cc2ccc(-c3cnc4ccccc4c3)cc2)CC1 [Example 149, 1-(4-hydroxy-4-(4-(quinolin-3-yl)benzyl)piperidin-1-yl)-2-methylpropan-1-one]",168,1000 to 10000
"CC(C)C(=O)N1CCC(O)(Cc2ccc(-c3ccc4[nH]ccc4c3)cc2)CC1 [Example 155, 1-(4-(4-(1H-indol-5-yl)benzyl)-4-hydroxypiperidin-1-yl)-2-methylpropan-1-one]",176,1000 to 10000
"CCC(=O)N1CCC(O)(Cc2ccc(-c3ccc4[nH]ccc4c3)cc2)CC1 [Example 154, 1-(4-(4-(1H-indol-5-yl)benzyl)-4-hydroxypiperidin-1-yl)propan-1-one]",100,1000 to 10000
"CCC(=O)N1CCC(O)(Cc2ccc(-c3cc4ccccc4o3)cc2)CC1 [Example 156, 1-(4-(4-(benzofuran-2-yl)benzyl)-4-hydroxypiperidin-1-yl)propan-1-one]",174,1000 to 10000
"C=C(c1ccc(-c2cnc3ccccc3c2)cc1)C1CCN(C(=O)C2CC2)CC1 [Example 41, Cyclopropyl-{4-[1-(4-quinolin-3-yl-phenyl)-vinyl]-piperidin-1-yl}-methanone]",100 to 102,1 to 99
"CCC(=O)N1CCC(C(C)c2ccc(-c3cnc4ccccc4c3)cc2)CC1 (stereo not drawn) (as salt: HCl) [Example 39, 1-(4-(1-(4-(quinolin-3-yl)phenyl)ethyl)piperidin-1-yl)propan-1-one]",178 to 180,
"CC(C)C(=O)N1CCC(O)(Cc2ccc(-c3cncc4ccccc34)cc2)CC1 [Example 159, 1-(4-hydroxy-4-(4-(isoquinolin-4-yl)benzyl)piperidin-1-yl)-2-methylpropan-1-one]",196,1000 to 10000
"CCC(=O)N1CCC(C2(c3ccc(-c4cnc5ccccc5c4)cc3)CC2)CC1 [Example 40, 1-{4-[1-(4-quinolin-3-yl-phenyl)-cyclopropyl]-piperidin-1-yl}-propan-1-one]",153 to 155,1 to 99
"CC(C)C(=O)N1CCC(O)(Cc2ccc(-c3ccc4cccnc4c3)cc2)CC1 [Example 151, 1-(4-hydroxy-4-(4-(quinolin-7-yl)benzyl)piperidin-1-yl)-2-methylpropan-1-one]",153,1000 to 10000
"CCC(=O)N1CCC(O)(Cc2ccc(-c3cncc4ccccc34)cc2)CC1 [Example 158, 1-(4-hydroxy-4-(4-(isoquinolin-4-yl)benzyl)piperidin-1-yl)propan-1-one]",78,1000 to 10000
"CCC(=O)N1CC=C(Cc2ccc(-c3cnc4ccccc4c3Cl)cc2)CC1 [Example 194, 1-(4-(4-(4-Chloroquinolin-3-yl)benzyl)-3,6-dihydropyridin-1(2H)-yl)propan-1-one]",,100 to 999
"CCC(=O)N1CCC(C(NC(C)=O)c2ccc(-c3cnc4ccccc4c3)cc2)CC1 (stereo not drawn) [Example 53, N-[(1-Propionylpiperidin-4-yl)-(4-quinolin-3-yl-phenyl)-methyl]-acetamide]",,1000 to 10000
"CCC(=O)N1CCC(F)(C(OCCN2CCOCC2)c2ccc(-c3ccc4cccnc4c3C)cc2)CC1 (stereo not drawn) [Example 227, 1-{4-Fluoro-4-[[4-(8-methyl-quinolin-7-yl)-phenyl]-(2-morpholin-4-yl-ethoxy)-methyl]-piperidin-1-yl}-propan-1-one]",,1 to 99
"O=C(C1CC1)N1CC=C(Cc2ccc(-c3cnc4ccccc4c3)cc2)CC1 [Example 172, Cyclopropyl(4-(4-(quinolin-3-yl)benzyl)-5,6-dihydropyridin-1(2H)-yl)methanone]",,100 to 999
"CCC(=O)N1CCC(C(C)c2ccc(-c3ccc4cccnc4c3)cc2)CC1 (stereo not drawn) [Example 42, 1-{4-[1-(4-Quinolin-7-yl-phenyl)-ethyl]-piperidin-1-yl}-propan-1-one]",,1 to 99
"O=C(C1CC1)N1CCC(C(F)c2ccc(-c3cnc4ccccc4c3)cc2)CC1 (stereo not drawn) [Example 7, Cyclopropyl-{4-[fluoro-(4-quinolin-3-yl-phenyl)-methyl]-piperidin-1-yl}-methanone]",,1 to 99
"CCC(=O)N1CCC(C(C)c2ccc(-c3cnc4ccccc4c3)cc2)CC1 (single isomer, unassigned) (as salt: HCl) [Example 68, 1-{4-[1-(4-Quinolin-3-yl-phenyl)-ethyl]-piperidin-1-yl}-propan-1-one]",219 to 221,
"Cc1c(-c2ccc(CC3CCN(C(=O)N4CCCC4)CC3)cc2)ccc2cccnc12 [Example 234, [4-[[4-(8-methyl-7-quinolyl)phenyl]methyl]-1-piperidyl]-pyrrolidin-1-yl-methanone]",,1 to 99
"Cc1nccc2cc(-c3ccc(C(OCCN4CCCC4)C4CCN(C(=O)[C@H]5CCCO5)CC4)cc3)ccc12 (stereo partly drawn) [Example 90, {4-[[4-(1-Methylisoquinolin-6-yl)phenyl]-(2-pyrrolidin-1-yl-ethoxy)-methyl]-piperidin-1-yl}-(R)-tetrahydrofuran-2-yl-methanone]",,100 to 999
O=C([C@H]1CCCO1)N1CCC(Cc2ccc(-c3cnc4ccccc4c3)cc2)CC1 [Example 4],,1 to 99
"O=C(C1CC1)N1CCC(Cc2ccc(-c3ccc4cccnc4c3Cl)cc2)CC1 [Example 30, {4-[4-(8-Chloroquinolin-7-yl)-benzyl]-piperidin-1-yl}-cyclopropylmethanone]",,1 to 99
"CCC(=O)N1CCC(C(CC)c2ccc(-c3cnc4ccccc4c3)cc2)CC1 (stereo not drawn) [Example 47, 1-{4-[1-(4-Quinolin-3-yl-phenyl)-propyl]-piperidin-1-yl}-propan-1-one]",,1 to 99
"CCOC(C)(c1ccc(-c2ccc3cccnc3c2)cc1)C1CCN(C(=O)CC)CC1 (stereo not drawn) [Example 214, 1-{4-[1-Ethoxy-1-(4-quinolin-7-yl-phenyl)-ethyl]-piperidin-1-yl}-propan-1-one]",,100 to 999
"CCC(=O)N1CCC(C(NC=O)c2ccc(-c3cnc4ccccc4c3)cc2)CC1 (stereo not drawn) [Example 55, N-[(1-Propionylpiperidin-4-yl)-(4-quinolin-3-yl-phenyl)-methyl]-formamide]",,1000 to 10000
"CCC(=O)N1CCC(C(C)c2ccc(-c3ccc4cccnc4c3Cl)cc2)CC1 (stereo not drawn) [Example 72, 1-(4-{1-[4-(8-chloroquinolin-7-yl)-phenyl]-ethyl}-piperidin-1-yl)-propan-1-one]",,1 to 99
